This assay concerns the target T1, interpain A (InpA) (Prevotella intermedia, UniProt A9J7N5).
T1 construct: gene pin0048; full precursor 868 residues with 44-residue signal peptide; mature form 28 kDa (Val112-Pro359)
The assay is described as follows: active-site titration; residual activity by AMC release from Boc-Val-Leu-Lys-AMC. The note with it: titrated to total inactivation; pH 7.5, 5 mM EDTA, 2 mM DTT; 37 min preincubation at room temperature; covalent active-site cysteine inhibitor (mode known, not given). It counts as biochemical.

T1 sequence (A9J7N5 entry or part of it): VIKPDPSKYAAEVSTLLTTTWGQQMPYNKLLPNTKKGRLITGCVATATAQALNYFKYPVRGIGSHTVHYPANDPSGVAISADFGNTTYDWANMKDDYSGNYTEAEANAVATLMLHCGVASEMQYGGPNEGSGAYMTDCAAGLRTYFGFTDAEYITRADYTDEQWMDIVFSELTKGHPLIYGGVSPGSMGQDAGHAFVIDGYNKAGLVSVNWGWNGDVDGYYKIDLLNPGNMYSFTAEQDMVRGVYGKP

For `CC(C)C[C@H](NC(=O)[C@H]1O[C@@H]1C(=O)O)C(=O)NCCCCNC(=N)N` [E64], the “active-site titration; residual activity by AMC release from Boc-Val-Leu-Lys-AMC” value was “determined by active site titration using inhibitor E64 (Sigma)”.

Source of the values: article PMC2642729, “Interpain A, a Cysteine Proteinase from Prevotella intermedia, Inhibits Complement by Degrading Complement Factor C3” (PLoS Pathogens, 2009).
